US8426420B2, “Heterocyclic pyrazole-carboxamidesas P2Y12 antagonists” (Sanofi, priority 2007, dated 2013)
Blank lines part the entries; values can stand above or below the compound they belong to.

How the values were obtained:
human P2Y12 receptor = human P2Y12 receptor (Homo sapiens, UniProt Q9H244); assay: Human P2Y12 recombinant cell membrane binding assay with 33P 2MeS-ADP; conditions: competition against 33P 2MeS-ADP, membranes of CHO cells with recombinant human P2Y12 receptor
Summary of the method: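 CHO membranes expressing human P2Y12 (20 μg/ml stock) preincubated 15 min at RT with compound in HEPES pH 7.4 buffer, then 33P 2MeS-ADP (1.61 nM working solution) added for 20 min at RT. Bound label filtered and counted; four-point, five-fold series from 10 μM final, triplicate, four-parameter fit.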

[1] = system: human platelet rich plasma; assay: Inhibition of human platelet aggregation, 96-well assay; type: cell-based; conditions: Homo sapiens, Platelet, 20 min
Protocol: Inhibition of Human Platelet Aggregation
Alternatively to a binding assay which measures a compound's ability to bind to the P2Y12 receptor, the effect on cellular function was also determined. This ability of the compound was evaluated in two platelet aggregation assays: in 96-well plates and with the “Born”-method using single cuvettes.
Whole blood was collected from healthy volunteers using 20 ml syringes containing 2 ml of ACD-A Aqua-Citrat-Dextrose-A, Fresenius). The anticoagulated whole blood was transferred into 15 ml polypropylene conical tubes (10 ml per tube). The tubes were centrifuged for 15 minutes at 150×g at RT without using the centrifuge brake. This procedure leads to a pellet of cellular components and a supernatant of platelet rich plasma (PRP). The PRP layer was collected from each tube and pooled for each donor. To avoid carry over of cellular components following centrifugation, approximately 5 ml of PRP was left in the tube. The platelet concentration was determined using a Coulter Counter.
The 15 ml tubes containing the pellet of cellular components were centrifuged again for 10 minutes at 1940×g. This pelleted out most particulate blood constituents remaining, leaving a layer of Platelet Poor Plasma (PPP). The PPP was collected for each donor. The PRP layer, previously set aside, was diluted with PPP to a final concentration of approximately 3×E8 platelets/ml with the PPP.
The human platelet aggregation assay is performed in 96-well plates using a microtiter plate reader (SpectraMax Plus 384 with SoftMax Pro software from Molecular Devices). In the plate 15 μl of test compound at 10× final concentration in NaCl is mixed with 120 μl fresh PRP and incubated for 5 minutes. Following that incubation period, 15 μl of 40 μM ADP is added to the reaction mix. This addition of ADP is sufficient to induce aggregation in the absence of an inhibitor. The plates are then transferred to the microplate reader and aggregation is measured over 20 minutes. The instrument settings include:
Absorbance at 650 nm, run time 20 minutes with readings in 1-minute intervals and 50 seconds shaking between readings all performed at 37° C.

human P2Y12 receptor, sequence (Q9H244 whole entry): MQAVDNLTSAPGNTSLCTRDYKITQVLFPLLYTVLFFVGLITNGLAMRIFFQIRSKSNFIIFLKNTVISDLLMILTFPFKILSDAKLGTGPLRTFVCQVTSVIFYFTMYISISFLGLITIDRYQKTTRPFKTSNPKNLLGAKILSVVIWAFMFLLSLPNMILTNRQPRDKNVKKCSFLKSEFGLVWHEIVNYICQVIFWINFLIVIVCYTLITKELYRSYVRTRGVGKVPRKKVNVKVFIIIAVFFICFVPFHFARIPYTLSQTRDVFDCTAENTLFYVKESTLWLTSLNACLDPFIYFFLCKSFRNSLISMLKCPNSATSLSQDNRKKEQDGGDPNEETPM

IC50 (human P2Y12 receptor): 96 nM | IC50 [1]: 60 nM
SMILES: CCOC(=O)N1CCN(C(=O)[C@H](CC(=O)O)NC(=O)c2cc(OCC(=O)N3CCC[C@H]3C(=O)NCC(F)(F)F)n(-c3ccccc3)n2)CC1 [Example 58, 4-{(S)-3-Carboxy-2-[(5-{2-[(S)-2-(2,2,2-trifluoro-ethylcarbamoyl)-pyrrolidin-1-yl]-2-oxo-ethoxy}-1-phenyl-1H-pyrazole-3-carbonyl)-amino]-propionyl}-piperazine-1-carboxylic acid ethyl ester]

IC50 (human P2Y12 receptor): 40 nM | IC50 [1]: 17 nM
SMILES: CCCCOC(=O)N1CCN(C(=O)CNC(=O)c2cc(OCC(=O)N3C[C@H](O)C[C@H]3C(=O)NC3CCC3)n(-c3ccccc3)n2)CC1 [Example 270, 4-[2-({5-[2-((2S,4R)-2-Cyclobutylcarbamoyl-4-hydroxy-pyrrolidin-1-yl)-2-oxo-ethoxy]-1-phenyl-1H-pyrazole-3-carbonyl}-amino)-acetyl]-piperazine-1-carboxylic acid butyl ester]

IC50 (human P2Y12 receptor): 28 nM | IC50 [1]: 260 nM
SMILES: CCCCOC(=O)N1CCN(C(=O)[C@@H](NC(=O)c2cc(OCC(=O)N3CCC[C@H]3C(=O)NC3CCC3)n(-c3ccccc3)n2)C(C)C)CC1 [Example 222, 4-[(S)-2-({5-[2-((S)-2-Cyclobutylcarbamoyl-pyrrolidin-1-yl)-2-oxo-ethoxy]-1-phenyl-1H-pyrazole-3-carbonyl}-amino)-3-methyl-butyryl]-piperazine-1-carboxylic acid butyl ester]

IC50 (human P2Y12 receptor): 39 nM | IC50 [1]: 260 nM
SMILES: CCOC(=O)N1CCN(C(=O)[C@H](CCC(=O)OC)NC(=O)c2cc(OCC(=O)N3CCC[C@H]3C(=O)NC3CCC3)n(-c3ccccc3)n2)CC1 [Example 136, 4-[(S)-2-({5-[2-((S)-2-Cyclobutylcarbamoyl-pyrrolidin-1-yl)-2-oxo-ethoxy]-1-phenyl-1H-pyrazole-3-carbonyl}-amino)-4-methoxycarbonyl-butyryl]-piperazine-1-carboxylic acid ethyl ester]

IC50 (human P2Y12 receptor): 22 nM | IC50 [1]: 330 nM
SMILES: CCCCOC(=O)N1CCN(C(=O)[C@H](CCCCO)NC(=O)c2cc(OCC(=O)N3CCC[C@H]3C(=O)NC3CCC3)n(-c3ccccc3)n2)CC1 [Example 213, 4-[(S)-2-({5-[2-((S)-2-Cyclobutylcarbamoyl-pyrrolidin-1-yl)-2-oxo-ethoxy]-1-phenyl-1H-pyrazole-3-carbonyl}-amino)-6-hydroxy-hexanoyl]-piperazine-1-carboxylic acid butyl ester]

IC50 (human P2Y12 receptor): 35 nM | IC50 [1]: 350 nM
SMILES: COC(=O)CC[C@H](NC(=O)c1cc(OCC(=O)N2CCC[C@H]2C(=O)NC2CCC2)n(-c2ccccc2)n1)C(=O)N1CCN(C(=O)OC2CCC2)CC1 [Example 189, 4-[(S)-2-({5-[2-((S)-2-Cyclobutylcarbamoyl-pyrrolidin-1-yl)-2-oxo-ethoxy]-1-phenyl-1H-pyrazole-3-carbonyl}-amino)-4-methoxycarbonyl-butyryl]-piperazine-1-carboxylic acid cyclobutyl ester]

IC50 (human P2Y12 receptor): 116 nM | IC50 [1]: 720 nM
SMILES: CCOCCOC(=O)CC[C@H](NC(=O)c1cc(OCC(=O)N2CCC[C@H]2C(=O)NC2CCC2)n(-c2ccccc2)n1)C(=O)N1CCN(C(=O)OCC)CC1 [Example 198, 4-[(S)-2-({5-[2-((S)-2-Cyclobutylcarbamoyl-pyrrolidin-1-yl)-2-oxo-ethoxy]-1-phenyl-1H-pyrazole-3-carbonyl}-amino)-4-(2-ethoxy-ethoxycarbonyl)-butyryl]-piperazine-1-carboxylic acid ethyl ester]

IC50 (human P2Y12 receptor): 187 nM | IC50 [1]: 410 nM
SMILES: CCCOC(=O)N1CCN(C(=O)[C@@H](C)NC(=O)c2cc(OCC(=O)N3CCC[C@H]3C(=O)NC3CCC3)n(-c3ccccc3)n2)CC1 [Example 206, 4-[(R)-2-({5-[2-((S)-2-Cyclobutylcarbamoyl-pyrrolidin-1-yl)-2-oxo-ethoxy]-1-phenyl-1H-pyrazole-3-carbonyl}-amino)-propionyl]-piperazine-1-carboxylic acid propyl ester]

IC50 (human P2Y12 receptor): 56 nM | IC50 [1]: 360 nM
SMILES: CCOC(=O)N1CCN(C(=O)[C@H](CCC(=O)OCOC(=O)C(C)(C)C)NC(=O)c2cc(OCC(=O)N3CCC[C@H]3C(=O)NC3CCC3)n(-c3ccccc3)n2)CC1 [Example 139, 4-[(S)-2-({5-[2-((S)-2-Cyclobutylcarbamoyl-pyrrolidin-1-yl)-2-oxo-ethoxy]-1-phenyl-1H-pyrazole-3-carbonyl}-amino)-4-(2,2-dimethyl-propionyloxymethoxycarbonyl)-butyryl]-piperazine-1-carboxylic acid ethyl ester]

IC50 (human P2Y12 receptor): 32 nM | IC50 [1]: 62 nM
SMILES: CCOC(=O)N1CCN(C(=O)[C@H](CCC(=O)O)NC(=O)c2cc(OCC(=O)N3CCC[C@H]3C(=O)NC3CC3(F)F)n(-c3ccccc3)n2)CC1 (stereo partly drawn) [Example 21, 4-{(S)-4-Carboxy-2-[(5-{2-[(S)-2-(2,2-difluoro-cyclopropylcarbamoyl)-pyrrolidin-1-yl]-2-oxo-ethoxy}-1-phenyl-1H-pyrazole-3-carbonyl)-amino]-butyryl}-piperazine-1-carboxylic acid ethyl ester]

IC50 (human P2Y12 receptor): 92 nM | IC50 [1]: 550 nM
SMILES: CCOC(=O)N1CCN(C(=O)[C@H](CCC(=O)O)NC(=O)c2cc(OCC(=O)N3CCC[C@H]3C(=O)NCC3CC3)n(-c3ccc(F)c(F)c3)n2)CC1 [Example 84, 4-((S)-4-Carboxy-2-{[5-[2-((S)-2-cyclopropylmethylcarbamoyl-pyrrolidin-1-yl)-2-oxo-ethoxy]-1-(3,4-difluoro-phenyl)-1H-pyrazole-3-carbonyl]-amino}-butyryl)-piperazine-1-carboxylic acid ethyl ester]

More lines, now with the values behind:

SMILES: CCOC(=O)C(=O)NCC[C@H](NC(=O)c1cc(OCC(=O)N2CCC[C@H]2C(=O)NC2CCC2)n(-c2ccccc2)n1)C(=O)N1CCN(C(=O)OCC)CC1 [Example 96, 4-[(S)-2-({5-[2-((S)-2-Cyclobutylcarbamoyl-pyrrolidin-1-yl)-2-oxo-ethoxy]-1-phenyl-1H-pyrazole-3-carbonyl}-amino)-4-(ethoxyoxalyl-amino)-butyryl]-piperazine-1-carboxylic acid ethyl ester]
IC50 (human P2Y12 receptor): 108 nM | IC50 [1]: 670 nM

SMILES: CCOC(=O)N1CCN(C(=O)[C@H](CCC(=O)O)NC(=O)c2cc(OCC(=O)N3CC[C@H]3C(=O)NC3CCC3)n(-c3ccccc3)n2)CC1 [Example 41, 4-[(S)-4-Carboxy-2-({5-[2-((S)-2-cyclobutylcarbamoyl-azetidin-1-yl)-2-oxo-ethoxy]-1-phenyl-1H-pyrazole-3-carbonyl}-amino)-butyryl]-piperazine-1-carboxylic acid ethyl ester]
IC50 (human P2Y12 receptor): 109 nM | IC50 [1]: 80 nM

SMILES: CCOC(=O)N1CCN(C(=O)[C@H](CCNC(=O)C2CC2(F)F)NC(=O)c2cc(OCC(=O)N3CCC[C@H]3C(=O)NC3CCC3)n(-c3ccccc3)n2)CC1 (stereo partly drawn) [Example 187, 4-{(S)-2-({5-[2-((S)-2-Cyclobutylcarbamoyl-pyrrolidin-1-yl)-2-oxo-ethoxy]-1-phenyl-1H-pyrazole-3-carbonyl}-amino)-4-[(2,2-difluoro-cyclopropanecarbonyl)-amino]-butyryl}-piperazine-1-carboxylic acid ethyl ester]
IC50 (human P2Y12 receptor): 98 nM | IC50 [1]: 440 nM

SMILES: CCCCOC(=O)N1CCN(C(=O)[C@H](CCC)NC(=O)c2cc(OCC(=O)N3CCC[C@H]3C(=O)NC3CCC3)n(-c3ccccc3)n2)CC1 [Example 221, 4-[(S)-2-({5-[2-((S)-2-Cyclobutylcarbamoyl-pyrrolidin-1-yl)-2-oxo-ethoxy]-1-phenyl-1H-pyrazole-3-carbonyl}-amino)-pentanoyl]-piperazine-1-carboxylic acid butyl ester]
IC50 (human P2Y12 receptor): 34 nM | IC50 [1]: 260 nM

SMILES: CCOC(=O)N1CCN(C(=O)[C@H](CCC(=O)O)NC(=O)c2cc(OCC(=O)N3CCC[C@H]3C(=O)NC3CCC3)n(-c3ccccc3)n2)CC1 [Example 5]
IC50 (human P2Y12 receptor): 19 nM | IC50 [1]: 30 nM

SMILES: CCCCOC(=O)N1CCN(C(=O)[C@H](CCCOC(C)=O)NC(=O)c2cc(OCC(=O)N3CCC[C@H]3C(=O)NC3CCC3)n(-c3ccccc3)n2)CC1 [Example 211, 4-[(S)-5-Acetoxy-2-({5-[2-((S)-2-cyclobutylcarbamoyl-pyrrolidin-1-yl)-2-oxo-ethoxy]-1-phenyl-1H-pyrazole-3-carbonyl}-amino)-pentanoyl]-piperazine-1-carboxylic acid butyl ester]
IC50 (human P2Y12 receptor): 20 nM | IC50 [1]: 280 nM

SMILES: O=C(NCC(=O)N1CCN(C(=O)OC2CCCC2)CC1)c1cc(OCC(=O)N2CCC[C@H]2C(=O)NC2CCC2)n(-c2ccccc2)n1 [Example 268, 4-[2-({5-[2-((S)-2-Cyclobutylcarbamoyl-pyrrolidin-1-yl)-2-oxo-ethoxy]-1-phenyl-1H-pyrazole-3-carbonyl}-amino)-acetyl]-piperazine-1-carboxylic acid cyclopentyl ester]
IC50 (human P2Y12 receptor): 99 nM | IC50 [1]: 20 nM
